Assay results taken from US8268849B2, “Multifunctional Antioxidants and methods of use thereof” (priority 2007, dated 2012).
“Also recorded” adds a separate entry of the source.

How the values were obtained:
[1] = Gino et al. (2001); cited from earlier work
[2] = Gino et al. (2001); cited from earlier work; remark: listed apart in the source
[3] = test system: diabetic cataract formation; assay: Cataract formation in diabetic rats; format: in vivo; conditions: streptozotocin diabetic rats
Description: Diabetes was induced in 100 g Sprague Dawley rats with streptozotocin injection (75 mg/kg) and all rats with blood sugar levels >300 mg/dL were divided into 4 groups of 8 rats each. One group received only standard rat chow (untreated diabetic) while each of the other groups received chow containing either 0.0125% ARI Al1576, 0.025% JHX-4 or 0.025% JHX-8. Lens changes were monitored by at 3-5 day intervals by slit lamp following tropicamide mydriasis. As summarized in FIGS. 8A-8C, vacuole formation began by 14 days in the untreated diabetic group with cortical opacities observed by 29 days and mature cataracts by 44 days. […] In the two antioxidant treated groups, vacuole formation was delayed by 19 and 11 days by JHX-4 and JHX-8, respectively, and cortical cataracts by 9 and 3 days, respectively. At the end of the study (47 days) all rats were equally diabetic with HbA1C levels >11.9%. All eyes were enucleated and lens sorbitol levels were measured as previously described (Kador et al. (2007) J. Ocul. Pharmacol. Ther., 23:116-23). […] Tissue levels of JHX-4 and -8 in the lens, neural retina and brain were determined after 47 days of feeding as described above (FIG. 10). […] Overall drug levels in both the lens and retina were ca. 3-fold higher in the diabetic rats with brain levels also now present. This increase may be due to either an accumulation of drug, or increased permeability of tissues and the BBB to drug in streptozotocin diabetic rats (Mooradian et al. (2005) Diabetes, 54:2977-82).

[4] = Chelation study by ESI-MS, Fe^3+ solution; format: binding; conditions: 10:1 metal:compound, 45 minutes of mixing
Description: (§1) The relative amount of ions bound by JHX-1-JHX-8 was determined by electrospray ionization mass spectrometry (ESI-MS) according to the method of Baron and Hering (Baron and Hering (1998) Spectrometry J. Environ. Qual., 27:844-850). In this method solutions containing Fe^2+, Fe^3+, Cu^1+, Cu^2+, Zn^2+, Ca^2+, Mg^2+ were mixed with compound in ratios of 10:1, 1:1, and 1:10. After 45 minutes of mixing, each solution was directly infused into the MS with constant ionization energy and the relative decreases of the parent peaks in these solutions were determined. […] FIG. 3 illustrates ion binding with increased Fe^+2 concentrations results in decreased compound parent peak heights by ESI-MS when compounds contain appropriate functional groups for metal ion chelation.

[5] = Chelation study by ESI-MS, Cu^2+ solution; format: binding; conditions: 10:1 metal:compound, 45 minutes of mixing
Description: as §1

[6] = Chelation study by ESI-MS, Cu^1+ solution; format: binding; conditions: 10:1 metal:compound, 45 minutes of mixing
Description: as §1

[7] = Chelation study by ESI-MS, Mg^2+ solution; format: binding; conditions: 10:1 metal:compound, 45 minutes of mixing
Description: as §1

[8] = Chelation study by ESI-MS, Ca^2+ solution; format: binding; conditions: 10:1 metal:compound, 45 minutes of mixing
Description: as §1

[9] = Chelation study by ESI-MS, Zn^2+ solution; format: binding; conditions: 10:1 metal:compound, 45 minutes of mixing
Description: as §1

[10] = Chelation study by ESI-MS, Fe^2+ solution; format: binding; conditions: 10:1 metal:compound, 45 minutes of mixing
Description: as §1

[11] = test system: SRA-1 human lens epithelium cell line; assay: MTS cell viability assay; format: cell-based; conditions: 1 mM compound; for protection against H2O2 induced loss of cell viability: 1.0 mM H2O2, 2 hours
Description: The SRA-1 human lens epithelium cell line (Ibaraki et al. (1998) Exp. Eye Res., 67:577-85) was used to evaluate the antioxidant activity of JHX-1-8. […] The cells were passaged when 80-90% confluent by treatment with trypsin-EDTA. The cells were plated at a density of 1×10^4 cells onto 96-well plates or 1×10^6 cells onto 100-mm dishes. ROS levels/effects in cells treated with JHX-1-8 were compared to similar cells treated with the water soluble Vitamin E derivative, Trolox (antioxidant control) or no drug (control). […] Cells were cultured in 96-well plates and exposed for 2 hours to media containing 1.0 mM H2O2 (FIG. 5A) or Fenton reagents (1.0 mM H2O2 and 1.0 mM Fe^2+, FIG. 5B) with/without 1 mM JHX-1-8 or Trolox. Viability was measured as the absorbance of MTS stain at 490 nm 1 hour after the addition of 20 μL of […] AQueous One Solution Cell Proliferation Assay to each well. The results were normalized to blank control (100%) since absorbance is directly proportional to the living cell population.

[12] = test system: SRA-1 human lens epithelial cells; assay: ROS staining (H2DCF-DA) in lens epithelial cells; format: cell-based; conditions: 24 hour incubation, H2DCF-DA stain; for ROS staining, ROS initiated by homocysteine: 10 mM homocysteine (ER stress); for ROS staining, ROS generated by Fenton reaction: 0.1 mM Fe^2+ and 0.1 mM hydrogen peroxide
Description: The SRA-1 human lens epithelium cell line (Ibaraki et al. (1998) Exp. Eye Res., 67:577-85) was used to evaluate the antioxidant activity of JHX-1-8. These cells were cultured in DMEM media containing 10% fetal bovine serum (FBS), glutamine, NaHCO3, penicillin, and streptomycin at 37° C. in humidified atmosphere of 5% CO2 and 95% air until subconfluent (2-4 days). The cells were passaged when 80-90% confluent by treatment with trypsin-EDTA. The cells were plated at a density of 1×10^4 cells onto 96-well plates or 1×10^6 cells onto 100-mm dishes. ROS levels/effects in cells treated with JHX-1-8 were compared to similar cells treated with the water soluble Vitamin E derivative, Trolox (antioxidant control) or no drug (control).
The compounds were initially screened for antioxidant activity in 24 hour cultured SRA-1 human lens epithelial cells. Reactive oxygen species (ROS) in these cells were generated through both the Fenton reaction in which 0.1 mM Fe^2+ and 0.1 mM hydrogen peroxide were added to the culture media, or by culturing the lens with 10 mM homocysteine which induces endoplasmic reticular (ER) stress that results in the unfolded protein response (UPR) that subsequently generates the ROS. ROS were visualized with 2′,7′-dichlorodihydrofluorescein diacetate (DCF) staining. More specifically, after 24 hours of incubation, all cells were washed 2× with PBS and then incubated at room temperature for 1 hour with 10 μM H2DCF-DA (Invitrogen) stain. Fluorescent ROS staining was analyzed by quantifying pixel intensities of images obtained by fluorescent microscopy. As illustrated below in FIGS. 4A and 4B, compounds with chelating groups only produced a dose-dependent reduction in Fenton Reaction generated ROS. […] Indeed, homocysteine activates ER stress which subsequently initiates ROS through an Unfolded Protein Response (UPR).

[13] = Chelation studies by ESI-MS, overall statement on ion binding; conditions: binding order Cu^1+=Cu^2+>Fe^2+=Fe^3+>Zn^2+; no binding with Ca^2+ or Mg^2+
Description: as §1

Row | % Parent Peak Remaining at 10:1 Solution of Metal:Compound [4] [%] | % Parent Peak Remaining at 10:1 Solution of Metal:Compound [5] [%] | % Parent Peak Remaining at 10:1 Solution of Metal:Compound [6] [%] | % Parent Peak Remaining at 10:1 Solution of Metal:Compound [7] [%] | % Parent Peak Remaining at 10:1 Solution of Metal:Compound [8] [%] | % Parent Peak Remaining at 10:1 Solution of Metal:Compound [9] [%] | % Parent Peak Remaining at 10:1 Solution of Metal:Compound [10] [%] | SMILES | reactivity toward alkyl radicals compared to α-tocopherol [1] [fold] | reactivity to peroxy radicals compared to α-tocopherol [2] | lens changes by slit lamp ([3]; 0.0125% in chow, 47 days) | lens sorbitol levels ([3]; end of study (47 days)) | protection against H2O2 induced loss of cell viability [11] | ROS staining, ROS initiated by homocysteine [12] | ion binding [13] | ROS staining, ROS generated by Fenton reaction [12] | increase of HLEC viability compared to controls ([11]; Fenton reagents (1.0 mM H2O2 and 1.0 mM Fe^2+), 2 hours) [%]
1 | 100.0 | 100.0 | 100.0 | 100.0 | 100.0 | 100.0 | 100.0 | CN(C)S(=O)(=O)N1CCN(c2ncccn2)CC1 [JHX-1, 1-N,N′-dimethylsulfamoyl-4-(2-pyrimidyl)piperazine] |  |  |  |  |  |  |  |  | 
2 | 100.0 | 100.0 | 100.0 | 100.0 | 100.0 | 100.0 | 100.0 | CN(C)S(=O)(=O)N1CCN(c2ncc(O)cn2)CC1 [JHX-2, 1-N,N′-dimethylsulfamoyl-4-(5-hydroxy-2-pyrimidyl)piperazine] |  |  |  |  | protecting against H2O2 induced loss of cell viability | reduced ROS staining similar to that with Trolox |  |  | 
3 | 10.0 | 4.4 | 3.6 | 100.0 | 100.0 | 15.3 | 8.1 | CN(C)S(=O)(=O)N1C(=O)CN(c2ncccn2)CC1=O [JHX-3, 1-N,N′-dimethylsulfamoyl-4-(2-pyrimidyl)piperazine-2,6-dione] |  |  |  |  |  |  | bind ions | decreased staining; also recorded: protected against ROS | 
4 | 100.0 | 100.0 | 100.0 | 100.0 | 100.0 | 100.0 | 100.0 | COc1cc(OC)nc(N2CCN(S(=O)(=O)N(C)C)CC2)n1 [JHX-5, 1-N,N′-dimethylsulfamoyl-4-(4,6-dimethoxy-2-pyrimidyl)piperazine] |  |  |  |  |  |  |  |  | 
5 | 100.0 | 100.0 | 100.0 | 100.0 | 100.0 | 100.0 | 100.0 | COc1nc(N2CCN(S(=O)(=O)N(C)C)CC2)nc(OC)c1O [JHX-6, 1-N,N′-dimethylsulfamoyl-4-(4,6-dimethoxy-5-hydroxy-2-pyrimidyl)piperazine] |  |  |  |  | protecting against H2O2 induced loss of cell viability | reduced ROS staining similar to that with Trolox |  |  | 
6 | 7.6 | 3.4 | 4.1 | 100.0 | 100.0 | 13.8 | 7.3 | COc1cc(OC)nc(N2CC(=O)N(S(=O)(=O)N(C)C)C(=O)C2)n1 [JHX-7, 1-N,N′-dimethylsulfamoyl-4-(4,6-dimethoxy-2-pyrimidyl)piperazine-2,6-dione] |  |  |  |  |  |  | bind ions | decreased staining; also recorded: protected against ROS | 

The remaining lines, values behind:

Row | SMILES | % Parent Peak Remaining at 10:1 Solution of Metal:Compound [4] [%] | % Parent Peak Remaining at 10:1 Solution of Metal:Compound [5] [%] | % Parent Peak Remaining at 10:1 Solution of Metal:Compound [6] [%] | % Parent Peak Remaining at 10:1 Solution of Metal:Compound [7] [%] | % Parent Peak Remaining at 10:1 Solution of Metal:Compound [8] [%] | % Parent Peak Remaining at 10:1 Solution of Metal:Compound [9] [%] | % Parent Peak Remaining at 10:1 Solution of Metal:Compound [10] [%] | reactivity toward alkyl radicals compared to α-tocopherol [1] [fold] | reactivity to peroxy radicals compared to α-tocopherol [2] | lens changes by slit lamp ([3]; 0.0125% in chow, 47 days) | lens sorbitol levels ([3]; end of study (47 days)) | protection against H2O2 induced loss of cell viability [11] | ROS staining, ROS initiated by homocysteine [12] | ion binding [13] | ROS staining, ROS generated by Fenton reaction [12] | increase of HLEC viability compared to controls ([11]; Fenton reagents (1.0 mM H2O2 and 1.0 mM Fe^2+), 2 hours) [%]
7 | Cc1nc(N(C)C)nc(C)c1O [2-N,N-Dimethyl-4,6-dimethyl-5-hydroxypyrimidine] |  |  |  |  |  |  |  | 5 | essentially equally reactive |  |  |  |  |  |  | 
8 | O=C1NC(=O)C2(N1)c1cc(F)ccc1-c1ccc(F)cc12 [AL1576, reference compound] |  |  |  |  |  |  |  |  |  | No lens changes were observed | No sorbitol was present |  |  |  |  | 
9 | Cc1c(C)c2c(c(C)c1O)CCC(C)(C(=O)O)O2 (stereo not shown) [Trolox, reference compound] |  |  |  |  |  |  |  |  |  |  |  |  |  |  |  | 15
